From publication PMC9316000, “Preclinical Drug Pharmacokinetic, Tissue Distribution and Excretion Profiles of the Novel Limonin Derivate HY-071085 as an Anti-Inflammatory and Analgesic Candidate in Rats and Beagle Dogs” (Pharmaceuticals, 2022)
“Also recorded” adds a separate entry of the source. Read-outs that look alike come from different tables or passages of the source.

Tests used:
[1] = Pharmacokinetics after single-dose intravenous administration in rats; type: in vivo, Sprague Dawley rats; conditions: S-IV 3.25 mg/kg; for AUC(0-inf) / AUC / MRT / half-life: rat, plasma; for AUC: read-out: AUC0-tn
Protocol: The PK parameters after the intravenous administration of 3.25 mg/kg HY-071085 (before use, prepared with 5% DMSO + 95% normal saline mixture) are listed in Table 1.
In vivo PK profiling in the rats: Sprague Dawley rats (approximately 177–221 g in weight) were purchased from Shanghai Xipur-Bikai Experimental Animal Co., Ltd. (Shanghai, China). Before the experiment, several rats were randomly divided into several groups, half males and half females in each group, fasting but free to drink water for 12 h. The dosage of the rats was dependent on the drug pharmacology: the HY-071085 active pharmaceutical ingredients were administered with a dosage volume of 0.25 mL/100 g body weight. The whole-blood samples were centrifuged at 8000 rpm for 5 min, and the plasma samples were separated and stored at –80 °C until the analysis.
(§1) According to the obtained plasma concentration time data, the pharmacokinetic parameters were calculated using Phoenix WinNonlin 8.1 software. The pharmacokinetic parameters—i.e., the area under the curve (AUC), mean residence time (MRT), clearance rate (Cl/F) and steady-state apparent distribution volume (Vss/F)—were calculated by the method of moments, which was estimated according to the following formulae: AUCtn=∑Ci+Ci−1ti−ti−1/2 AUC∞=AUCtn+Cm/λ AUMCtn=∑tiCi+ti−1Ci−1ti−ti−1/2 AUMC∞=AUMCtn+Ctntn/λ+1/λ^2 MRT=AUMC∞/AUC∞ Cl/F=Dose/AUC Vss/F=Cl∗MRT where Ctn is the plasma concentration of tn at the last point after administration, and the elimination rate constant was obtained by ln(concentration) time linear regression.
(§2) Due to the drug having significant individual differences in rats, it could not be uniformly fitted with a PK atrioventricular model; as such, the pharmacokinetic parameters analyzed in this study were calculated using a non-atrioventricular model. The pharmacokinetic parameters are defined as follows: Cmax is the maximum blood concentration after administration and absorption, Tmax is the time required to reach Cmax, t1/2 is the time required to eliminate half of the plasma drug concentration after the drug distribution in the body reaches equilibrium, Cl/F is the apparent clearance rate, AUC0-tn is the area under the blood concentration time curve within the dosing interval, AUC0-∞ is the area under the plasma concentration time curve from 0 to infinity, MRT is the average time that all drug molecules stay in the body, and Vss/F is the steady-state apparent distribution volume, which is the product of the clearance rate and average residence time.

[2] = Pharmacokinetics after single-dose intragastric administration in beagle dogs; type: in vivo; conditions: both sexes, dog, plasma; for bioavailability: 1.25 mg/kg intragastric vs intravenous, from AUC0-∞, read-out: absolute oral bioavailability; for AUC: read-out: AUC0-tn; for Vd/F: read-out: Vss/F
Protocol: Male and female beagle dogs were administered low (1.25 mg/kg), medium (2.5 mg/kg) and high (5 mg/kg) doses of HY-071085 by gastric gavage, and blood samples were collected from the forelimb vein at various time points before and 8 h after administration in order to analyze the concentration of HY-071085 in the plasma. The profiles of the mean plasma concentration of HY-071085 versus time in dogs are presented in Figure 7, and the PK parameters are listed in Table 2. There was no gender difference in the pharmacokinetics in dogs (Figure 8). The AUCtn ratio for the three doses was 1:3.8:11.9, and the AUC0-∞ ratio between doses was 1:3.6:11.3, which was greater than the dose increase ratio (1:2:4), as shown in Figures S3 and S4.
(§3) In vivo PK profiling in dogs: Beagle dogs (approximately 8–10 kg in weight) were purchased from Jiangsu Yadong Experimental Animal Research Institute Co. Ltd (Nanjing, China). Before the experiment, several beagle dogs were randomly divided into several groups, half males and half females in each group. Four cycles of single-dose administration experiments were carried out, and the cleaning period was 3–5 days. Repeated-dose administration was carried out after the end of four cycles of single-dose administrations and cleaning periods. According to the dosage for the rats, the dosage for the beagle dogs was converted via the body surface area method. The HY-071085 active pharmaceutical ingredients were administered with a dosage volume of 2 mL/kg body weight. The whole-blood samples were centrifuged at 8000 rpm for 5 min, and the plasma samples were separated and stored at –80 °C until the analysis.
as §1, §2

[3] = Pharmacokinetics after repeated-dose intragastric administration in beagle dogs; type: in vivo; conditions: R-IG 2.5 mg/kg
Protocol: AUC0-∞ was 195.41 ± 90.03 and 728.57 ± 270.64 h∙ng/mL, respectively (Table 2, Figure 10). […] On the fifth and seventh days before administration, the plasma concentration (valley concentration) was mostly below the lower limit of quantification (1 ng/mL).
as §3, §1, §2

[4] = Tissue distribution in rats; type: in vivo; conditions: S-IG 13 mg/kg
Protocol: The male and female rats were euthanized by femoral artery bleeding under anesthesia after the single-dose intragastric administration of HY-071085 (13 mg/kg) for 10 min, 45 min and 4 h, and the tissues were separated for the analysis of the concentration of HY-071085 in the homogenate.
Tissue distribution in rats: Rats were randomly allocated into three groups (10 rats/group) for the tissue distribution studies. These rats were sacrificed at 10 min, 45 min and 4 h after orally administering HY-071085. Fourteen organs—the heart, liver, spleen, lung, kidney, stomach, gut, muscle, fat, skin, brain, ovary (female), womb (female) and testis (male)—were removed, washed in normal saline, and dried with filter papers immediately. The organs were accurately weighed and individually homogenized with an appropriate amount of deionized water. The tissue homogenate was stored at –80 °C until analysis.

[5] = po, single-dose intragastric 2.5 mg/kg
[6] = both sexes, dog, plasma, po, 7 d

SMILES: CC1(C)OC2CC(=O)OCC23C1C/C(=N\OCCN1CCOCC1)C1(C)C3CC[C@@]2(C)[C@H](c3ccoc3)OC(=O)C3OC312 (stereo partly drawn) [HY-071085, (12S,12aS,E)-12-(furan-3-yl)-6,6,8a,12a-tetramethyl-8-((2-morpholinoethoxy)imino)dodecahydro-1H,3H-oxireno [2,3-d]pyrano [4’,3’:3,3a]isobenzofuro [5,4-f]isochromene-3,10(9aH)-dione]
- AUC(0-inf) ([1]; Sprague Dawley, female rats): 684 ± 39.2 ng·h/mL
- AUC ([1]; Sprague Dawley, female rats): 682 ± 225 ng·h/mL
- AUC(0-inf) ([1]; Sprague Dawley, male rats): 740 ± 146 ng·h/mL
- MRT ([1]; Sprague Dawley, male rats): 17.4 ± 2.4 min
- AUC ([1]; Sprague Dawley, male rats): 739 ± 146 ng·h/mL
- MRT ([1]; Sprague-Dawley, female rats): 20.4 ± 3 min
- half-life ([1]; Sprague-Dawley, female rats): 20.4 ± 3 min
- half-life ([1]; Sprague-Dawley, male rats): 24 ± 6 min
- Cl/F ([1]; female rats): 79.3 ± 4.5 mL/min/kg
- Vss/F ([1]; female rats): 1.63 ± 0.17 L/kg
- Cl/F ([1]; male rats): 75 ± 11.8 mL/min/kg
- Vss/F ([1]; male rats): 1.31 ± 0.18 L/kg
- bioavailability ([2]; oral): 13.1%
- bioavailability ([2]; po): ~13.1%
- AUC(0-inf) ([2]; po, S-IG 1.25 mg/kg): 54.1 ± 25.4 ng·h/mL
- CL/F ([2]; po, S-IG 1.25 mg/kg): 517 mL/min/kg
- Cmax ([2]; po, S-IG 1.25 mg/kg): 37.9 ± 20.1 ng/mL
- MRT ([2]; po, S-IG 1.25 mg/kg): 80.4 ± 31.8 min
- Tmax ([2]; po, S-IG 1.25 mg/kg): 29.4 ± 25.8 min
- half-life ([2]; po, S-IG 1.25 mg/kg): 52.8 ± 26.4 min
- AUC ([2]; po, S-IG 1.25 mg/kg): 51.1 ± 24.9 ng·h/mL
- Vd/F ([2]; po, S-IG 1.25 mg/kg): 35.3 ± 19.1 L/kg
- AUC(0-inf) ([2]; po, S-IG 5 mg/kg): 610 ± 235 ng·h/mL
- CL/F ([2]; po, S-IG 5 mg/kg): 156 mL/min/kg
- Cmax ([2]; po, S-IG 5 mg/kg): 436 ± 206 ng/mL
- MRT ([2]; po, S-IG 5 mg/kg): 87.6 ± 29.4 min
- Tmax ([2]; po, S-IG 5 mg/kg): 41.4 ± 33 min
- half-life ([2]; po, S-IG 5 mg/kg): 49.8 ± 7.8 min
- AUC ([2]; po, S-IG 5 mg/kg): 606 ± 236 ng·h/mL
- Vd/F ([2]; po, S-IG 5 mg/kg): 11.5 ± 6.03 L/kg
- AUC(0-inf) [2, 5]: 195 ± 90 ng·h/mL
- half-life [2, 5]: 49.8 ± 7.2 min
- plasma concentration (valley concentration) before administration ([3]; fifth and seventh days, mostly below the lower limit of quantification): < 1 ng/mL
- AUC(0-inf) [3, 6]: 729 ± 271 ng·h/mL
- CL/F at 7 d [3, 6]: 32.3 mL/min/kg
- Cmax at 7 d [3, 6]: 445 ± 135 ng/mL
- MRT at 7 d [3, 6]: 94.8 ± 8.4 min
- Tmax at 7 d [3, 6]: 16.2 ± 9 min
- half-life at 7 d [3, 6]: 64.8 ± 7.8 min
- AUC ([3]; both sexes, dog, plasma, po, 7 d, read-out: AUC0-tn): 723 ± 270 ng·h/mL
- Vd/F at 7 d ([3]; both sexes, dog, plasma, po, 7 d, read-out: Vss/F): 3.04 ± 1.19 L/kg
- concentration in the brain [4]: extremely low
- tissue distribution ([4]; 10 min, 45 min and 4 h): mainly distributed in the gastric, intestine, liver, spleen, lung and kidney tissues; also recorded: mainly distributed in most of the tissues except the brain
